Data reported in patent publication US6235891A, “Glucocorticoid receptor agonist and decreased PP5” (South Alabama Medical Science Foundation, priority 1999, dated 2001).

Key:
p21^Waf1/Cip1 mRNA [1] = assay: Northern analysis of p21Waf1/Cip1 mRNA in T-24 cells; format: cell-based, human; conditions: dexamethasone 100 nM, 24 hours
Method: (§1) The cells were harvested, and total RNA was extracted with TRIzol® Reagent according to the methods of the manufacturer. Total RNA (20 μg) was fractionated on 1% agarose gels containing formaldehyde and transferred to DURLON-UV nylon membranes (Stratagene). Following UV cross-linking, the filters were hybridized with a [α^32 P]probe for human PP5. The human PP5 cDNA probe was generated from the full length coding region of PP5 and [α^32 P]-dATP was labeled with DECAprime® DNA Labeling Kit according to the manufacturer's protocol. […] Quantification of hybridization signals was achieved by analysis of the scanned autoradiograms using the NIH Image program (ImagePC). […]
(§2) The antiproliferative effect of dexamethasone correlates with the presence of wild type p53 and the expression of p21^Waf1/Cip1 mRNA. Referring to FIGS. 1A-1C, the effect of dexamethasone on cell proliferation in p53-defective T-24 human bladder carcinoma, p53-null TR9 human fibroblasts (Webster et al. 1993; Maiyar et al. 1996), and p53 wild-type A549 human lung carcinoma cells was determined by treating cells in log-phase growth with a single dose of 100 nM dexamethasone and counting the number of cells in treated (.cndot.) and untreated (.box-solid.) cultures for six consecutive days following treatment. […] After 24 hours total mRNA was prepared and analyzed for p21 and sgk mRNA levels by Northern analysis.

A549 cells [2] = assay: A549 cell proliferation (viable cell counts); format: cell-based, human; conditions: for Growth arrest: p53 wild-type A549 cells, dexamethasone single dose 100 nM, counted six days; for Decrease in proliferation compared to control: 300 nM
Method: A549 cells were treated with ISIS 15534 or its scrambled control, ISIS 15521 at a concentration of 300 nM. Each day for the next 5 days, viable cells were counted.
A549 cells were seeded in 12-well tissue culture plates at about 50% confluence in DMEM containing 10% fetal bovine serum. The next day, cells were treated with the PP5-specific antisense oligonucleotide, ISIS 15534, or its scrambled control, ISIS 15521, at a final concentration of 300 nM as described in Example 7. On each of the following 5 days, cultures from three wells of each treatment gruop were trypsinized, collected and counted. Cell viability was determined by trypan blue staining, and the results given are the mean of three independent experiments.
A549 cells were seeded in 12-well tissue culture plates at a density of 5.0×10^4 cell/dish. On the next day, the cells were treated with PP5 specific antisense oligonucleotides (ISIS 15534) or the scrambled mismatch control (ISIS 15521) at a final concentration of 300 nM as described above. On each of the next five days, the cell cultures were treated briefly with trypsin to detach the cells from the dish (three wells from each test group). The number of cells was then determined by counting using a hemacytometer. Cell viability was determined with trypan blue staining. The percentage of viable cells was calculated by dividing the number of cells excluding trypan blue by the total number of cells, and the results are reported as the mean +/- SD of data collected from three independent experiments.
(§3) The antiproliferative effect of dexamethasone correlates with the presence of wild type p53 and the expression of p21^Waf1/Cip1 mRNA. Referring to FIGS. 1A-1C, the effect of dexamethasone on cell proliferation in p53-defective T-24 human bladder carcinoma, p53-null TR9 human fibroblasts (Webster et al. 1993; Maiyar et al. 1996), and p53 wild-type A549 human lung carcinoma cells was determined by treating cells in log-phase growth with a single dose of 100 nM dexamethasone and counting the number of cells in treated (.cndot.) and untreated (.box-solid.) cultures for six consecutive days following treatment. Each point represents the mean of triplicate dishes with error bars representing SE. Under similar conditions, treatment with ISIS 15534, a potent inhibitor of PP5 gene expression, inhibited growth in A459 but not T-24 or TR9 cells (Zuo et al. 1998). Referring to FIG. 1D, a comparison of p21^Waf1/Cip1 (p21) and serum glucocorticoid inducible protein kinase (sgk) mRNA levels in p53 competent (Lanes 3, 4) and p53 deficient (Lanes 1, 2, 5, 6) cell cultures after dexamethasone treatment is shown. Cell cultures in logphase growth were treated with 100 nM dexamethasone (+) or vehicle alone as a control (-). After 24 hours total mRNA was prepared and analyzed for p21 and sgk mRNA levels by Northern analysis.

[3] = tested on: p53-defective T-24 human bladder carcinoma cells; assay: T-24 cell proliferation (cell counts); format: cell-based; conditions: p53-defective T-24 cells; dexamethasone single dose 100 nM, counted six days
Method: as §3

p21^Waf1/Cip1 mRNA [4] = assay: Northern analysis of p21Waf1/Cip1 mRNA in TR9 cells; format: cell-based, human; conditions: dexamethasone 100 nM, 24 hours
Method: as §1, §2

PP5 mRNA = assay: Northern blot analysis of PP5 mRNA expression in A549 cells; format: cell-based, human; conditions: dexamethasone 0-100 nM, 24 hours
p21^Waf1/Cip1 mRNA [5] = assay: Northern analysis of p21Waf1/Cip1 mRNA in A549 cells; format: cell-based, human; conditions: dexamethasone 100 nM, 24 hours
Method: The cells were harvested, and total RNA was extracted with TRIzol® Reagent according to the methods of the manufacturer. Total RNA (20 μg) was fractionated on 1% agarose gels containing formaldehyde and transferred to DURLON-UV nylon membranes (Stratagene). Following UV cross-linking, the filters were hybridized with a [α^32 P]probe for human PP5. […] Hybridization was performed in the presence of 50% formamide, 0.1 M Pipes, 0.8 M NaCl, 5×Denhardt's solution, 100 μg/ml denatured herring sperm DNA, 1×10^6 cpm/ml [α-^32 P]-labeled probe and 10% dextran sulfate at 42° C. for 16 hours. […] Quantification of hybridization signals was achieved by analysis of the scanned autoradiograms using the NIH Image program (ImagePC).
Referring to FIG. 1D, a comparison of p21^Waf1/Cip1 (p21) and serum glucocorticoid inducible protein kinase (sgk) mRNA levels in p53 competent (Lanes 3, 4) and p53 deficient (Lanes 1, 2, 5, 6) cell cultures after dexamethasone treatment is shown. […] After 24 hours total mRNA was prepared and analyzed for p21 and sgk mRNA levels by Northern analysis.
After 24 hours, 20 μg of total RNA was prepared and analyzed for serine/threonine protein phosphatase 5 (PP5), p21^Waf1/Cip1 (p21), and serum/glucocorticoid inducible kinase (sgk) mRNA levels. […]

[6] = tested on: GR luciferase reporter plasmid MMTV-luc; assay: MMTV-Luc glucocorticoid-responsive luciferase reporter assay in A549 cells; format: cell-based, human; conditions: 300 nM ISIS 15534 without dexamethasone, dexamethasone ≥100 nM for 2 hours
Method: Transfections and luciferase assays were conducted as described by Jones et al. (1996) using a mouse mammary tumor virus-luciferase reporter plasmid (MMTV-Luc). […] Briefly, A549 cells were transfected in serum-free medium with 1 μg MMTV-Luc plasmid DNA per 60 mm dish using 15 μg/ml Lipofectin. ODNs were added into the transfection media wherever applicable. After a 4-hour incubation, the medium was replaced with fresh complete culture medium, and the cells were cultured overnight. The cells were then treated with different amounts of dexamethasone for two hours. Cell extracts were prepared with reporter lysis buffer (Promega). […] Light production was measured for 20 seconds at 562 nm using a Monolight 2010 luminometer (Analytical Luminescence Lab., San Diego, Calif.). To control for difference in transfection efficiency, contransfections were performed with 1 μg of a plasmid encoding β-galactosidase controlled by the SV40 virus promoter (pSV-β-GAL). β-GAL activity was measured in 150 μl cell extracts using the β-Galactosidase Enzyme Assay System (Promega).
A549 cells were transiently transfected with GR luciferase reporter plasmid, MMTV-luc (Jones et al. 1996). […] The relative light units of the cell extract were calculated as an average of three independent experiments, performed in triplicate, and presented as relative luciferase activity with error bars indicating SD.

[7] = tested on: p53-null TR9 human fibroblasts; assay: TR9 cell proliferation (cell counts); format: cell-based; conditions: dexamethasone single dose 100 nM, counted six days
Method: as §3

A549 cells [8] = assay: [3H]-thymidine incorporation (DNA synthesis) in A549 cells; format: cell-based, human; conditions: 300 nM
Method: Cells were pulse-labeled with [^3 H]-thymidine for 5 hours at intervals over the next five days. Cells were lysed and [^3 H]-thymidine incorporation (indicative of DNA synthesis) was determined by liquid scintillation counting.
At timed intervals during the next 5 days, cells were pulse-labeled with [^3 H]-thymidine (0.5 μCi/ml) for 5 hours. […] The results given are the mean of three independent experiments.

Molecule | Expression of p21^Waf1/Cip1 (p21^Waf1/Cip1 mRNA [1]) | A549 cell growth when expression of p53 is suppressed with ISIS 8345 (A549 cells [2]; dexamethasone ≥100 nM) | Growth arrest (A549 cells [2]) | Growth arrest [3] | Expression of p21^Waf1/Cip1 (p21^Waf1/Cip1 mRNA [4]) | Expression of PP5 mRNA (PP5 mRNA) | Expression of p21^Waf1/Cip1 (p21^Waf1/Cip1 mRNA [5]) | GR-reporter plasmid activation [6] | Growth arrest [7] | Decrease in proliferation compared to control (A549 cells [2]; day 2) [%] | Decrease in proliferation compared to control (A549 cells [2]; day 3) [%] | Decrease in proliferation compared to control (A549 cells [2]; day 4) [%] | Decrease in proliferation compared to control (A549 cells [2]; day 5) [%] | Decrease in [3H]-thymidine incorporation compared to control (A549 cells [8]; day 2) | Decrease in [3H]-thymidine incorporation compared to control (A549 cells [8]; day 3) [%] | Decrease in [3H]-thymidine incorporation compared to control (A549 cells [8]; day 4) [%] | [3H]-thymidine incorporation relative to untreated cells (A549 cells [8]; day 5)
C[C@@H]1C[C@H]2[C@@H]3CCC4=CC(=O)C=C[C@]4(C)[C@@]3(F)[C@@H](O)C[C@]2(C)[C@@]1(O)C(=O)CO [dexamethasone, reference compound] | neither ISIS 15534 nor dexamethasone induced | partially inhibit | produced growth arrest | neither ISIS 15534 nor dexamethasone induced | neither ISIS 15534 nor dexamethasone induced | does not appear to change | concomitant increase in the expression of p21^Waf1/Cip1 | more pronounced | neither ISIS 15534 nor dexamethasone induced | – | – | – | – | – | – | – | –
ISIS 15534: chimeric PP5 antisense oligonucleotide, P=O wings, P=S deoxy gap; GGGCCCTATTGCTTGAGTGG, SEQ ID NO: 12 (sugars by position and backbone not given here; chimeric, phosphodiester wings, phosphorothioate deoxy gap) | neither ISIS 15534 nor dexamethasone induced | – | produced growth arrest | neither ISIS 15534 nor dexamethasone induced | neither ISIS 15534 nor dexamethasone induced | – | concomitant increase in the expression of p21^Waf1/Cip1 | induces glucocorticoid-mediated transcriptional activation | neither ISIS 15534 nor dexamethasone induced | 55 | 75 | 89 | 55 | approximately 85% | ~88 | ~62 | approximately equivalent in treated and untreated cells
